Experimental data published in patent US20020193627A1, “Novel crystalline disodium pamidronate hydrate and process for preparing it” (priority 1999, published 2002).
Read-outs that look alike come from different tables or passages of the source.

Key:
[1] = for Stability Evaluation (Stable hydrate): form listed as stable
Procedure: (1) anhydrous disodium pamidronate, (2) disodium pamidronate 3˜4 hydrates prepared in the example 2(water contents 18.50%), (3) disodium pamidronate 5 hydrates (water contents 24.41%)
(1) 1.000 g 1.200 g of anhydrous disodium pamidronate was accurately weighed and 15 samples were prepared.
(2) 1.000 g -1.200 g of disodium pamidronate 3˜4 hydrates was accurately weighed and I; samples were prepared.
(3) 1.000 g-1.200 g of disodium pamidronate 5 hydrates was accurately weighed and 15 samples were prepared.
(4) The tests were carried out under the following conditions:
1) Temperature (T) and humidity (relative humidity: RH): i) 24° C., 50% RH, ii) 40° C., 0% RH, iii) 40° C., 75% RH […]
i) 1 week ii) 2 weeks, iii) 3 weeks, iv) 4 weeks. v) 5 weeks
(5) After the tests were carried out, each sample was dried under reduced pressurekbelow 5 mmHg) at 150° C. for 5 hours, weighed the lost weight and determined the water contents.
The values show water contents (%).

[2] = Soft gelatine capsule storage stability by visual observation; assay type: physicochemical; details: soft gelatine capsules (125 mg); 24° C., 50% RH; 6 months
Procedure: Soft gelatine capsules(125 mg) were respectively prepared from the crystalline disodium pamidronates of example 2 and comparative example by a conventional soft capsule manufacturing method. The soft capsules were stored in chamber which is controlled a constant temperature and hymidity (24° C., 50% RH) for 6 months. The stabilities of the soft capsules were tested by visual observation for the changes of properties, colors or shapes.

[3] = Thermal Gravity Assay (TGA); assay type: physicochemical
Procedure: In order to confirm the physical properties of 3˜4 hydrates prepared in the example 2, the lattice distances (d-values) and relative line sensitivities of X-ray diffraction patterns were measured on the conditions of step sizes 0.012 from 2 theta 5 to 2 theta 50, scan velocity 3.000 and time 2.000 by using Rigaku D/Max-IIIB X-ray Diffractometer (XRD). The test results were shown on FIG. 1a and FIG. 1b. Thermal Gravity Assay for 3˜4 hydrates (TGA data) was carried out by using TA Instruments Model 2950 TGA Thermal Analyzer (TGA). The lost weight of the 3˜4 hydrtes was measured by gradually raising the temperature of 10° C. per minute from room temperature to 500° C. The results were shown on FIG. 2.

**Q.** For NCCC(O)(P(=O)([O-])O)P(=O)([O-])O.[Na+].[Na+] [comparative example, disodium 3-amino-1-hydroxypropane-1,1-diphosphonate], which “behaviour of water contents on storage” value ([1]; 24° C. 50% RH) is on record?
**A.** Its value is “lost from 1 week”.

**Q.** What about the water contents ([1]; 24° C., 50% RH, 1 week) of the same compound?
**A.** The water contents was 19.14%.

**Q.** What about the water contents ([1]; 24° C., 50% RH, 2 weeks) of the same compound?
**A.** The water contents was 18.79%.

**Q.** What about the water contents ([1]; 24° C., 50% RH, 3 weeks) of the same compound?
**A.** The water contents was 18.29%.

**Q.** And the water contents ([1]; 24° C., 50% RH, 4 weeks)?
**A.** The water contents was 18.43%.

**Q.** What about the water contents ([1]; 24° C., 50% RH, 5 weeks) of the same compound?
**A.** Its water contents is 18.37%.

**Q.** And the “behaviour of water contents on storage” value ([1]; 40° C. 0% RH)?
**A.** The value was “maintained stably”.

**Q.** And the “behaviour of water contents on storage” value ([1]; 40° C. 75% RH)?
**A.** Its value is “maintained stably”.

**Q.** What about the water contents ([1]; 40° C., 0% RH, 1 week) of the same compound?
**A.** Its water contents is 24.44%.

**Q.** What about the water contents ([1]; 40° C., 0% RH, 2 weeks) of the same compound?
**A.** The water contents was 24.19%.

**Q.** What about the water contents ([1]; 40° C., 0% RH, 3 weeks) of the same compound?
**A.** Its water contents is 23.52%.

**Q.** What about the water contents ([1]; 40° C., 0% RH, 4 weeks) of the same compound?
**A.** The water contents was 23.01%.

**Q.** What about the water contents ([1]; 40° C., 0% RH, 5 weeks) of the same compound?
**A.** Its water contents is 22.21%.

**Q.** And the “Stability Evaluation (Stable hydrate)” value ([1]; 40° C., 0% RH, listed as 5 hydrate)?
**A.** The value was 5 hydrate.

**Q.** What about the water contents ([1]; 40° C., 75% RH, 1 week) of the same compound?
**A.** The water contents was 24.02%.

**Q.** What about the water contents ([1]; 40° C., 75% RH, 2 weeks) of the same compound?
**A.** Its water contents is 24.43%.

**Q.** What about the water contents ([1]; 40° C., 75% RH, 3 weeks) of the same compound?
**A.** Its water contents is 24.35%.

**Q.** What about the water contents ([1]; 40° C., 75% RH, 4 weeks) of the same compound?
**A.** The water contents was 23.65%.

**Q.** What about the water contents ([1]; 40° C., 75% RH, 5 weeks) of the same compound?
**A.** The water contents was 23.55%.

**Q.** And the “Stability Evaluation (Stable hydrate)” value ([1]; 40° C., 75% RH, listed as 5 hydrate)?
**A.** Its value is 5 hydrate.

**Q.** What about the “changes of properties, colors or shapes of soft capsules by visual observation” value [2] of the same compound?
**A.** Its value is “changed in shapes (partly collapse by releasing water), colors and dewy phenomena on inner parts of the capsules”.

**Q.** For NCCC(O)(P(=O)([O-])O)P(=O)([O-])O.[Na+].[Na+] [Example 2, crystalline disodium pamidronate 3˜4 hydrates], which water contents ([1]; 24° C., 50% RH, 1 week) is on record?
**A.** Its water contents is 18.19%.

**Q.** And the water contents ([1]; 24° C., 50% RH, 2 weeks)?
**A.** The water contents was 18.03%.

**Q.** And the water contents ([1]; 24° C., 50% RH, 3 weeks)?
**A.** Its water contents is 18.04%.

**Q.** And the water contents ([1]; 24° C., 50% RH, 4 weeks)?
**A.** Its water contents is 18.31%.

**Q.** And the water contents ([1]; 24° C., 50% RH, 5 weeks)?
**A.** Its water contents is 18.28%.

**Q.** And the “Stability Evaluation (Stable hydrate)” value ([1]; 24° C., 50% RH)?
**A.** Its value is 3-4 hydrate.

**Q.** What about the “behaviour of water contents on storage” value ([1]; 40° C. 0% RH) of the same compound?
**A.** Its value is “maintained stably”.

**Q.** And the “behaviour of water contents on storage” value ([1]; 40° C. 75% RH)?
**A.** Its value is “maintained stably”.

**Q.** And the water contents ([1]; 40° C., 0% RH, 1 week)?
**A.** Its water contents is 17.12%.

**Q.** And the water contents ([1]; 40° C., 0% RH, 2 weeks)?
**A.** The water contents was 17.20%.

**Q.** And the water contents ([1]; 40° C., 0% RH, 3 weeks)?
**A.** The water contents was 17.37%.

**Q.** What about the water contents ([1]; 40° C., 0% RH, 4 weeks) of the same compound?
**A.** Its water contents is 17.10%.

**Q.** What about the water contents ([1]; 40° C., 0% RH, 5 weeks) of the same compound?
**A.** The water contents was 17.22%.

**Q.** And the “Stability Evaluation (Stable hydrate)” value ([1]; 40° C., 0% RH)?
**A.** The value was 3-4 hydrate.

**Q.** And the water contents ([1]; 40° C., 75% RH, 1 week)?
**A.** The water contents was 17.20%.

**Q.** What about the water contents ([1]; 40° C., 75% RH, 2 weeks) of the same compound?
**A.** Its water contents is 17.66%.

**Q.** And the water contents ([1]; 40° C., 75% RH, 3 weeks)?
**A.** The water contents was 17.45%.

**Q.** And the water contents ([1]; 40° C., 75% RH, 4 weeks)?
**A.** Its water contents is 17.15%.

**Q.** What about the water contents ([1]; 40° C., 75% RH, 5 weeks) of the same compound?
**A.** Its water contents is 17.26%.

**Q.** What about the “Stability Evaluation (Stable hydrate)” value ([1]; 40° C., 75% RH) of the same compound?
**A.** Its value is 3-4 hydrate.

**Q.** What about the “overall stability among disodium pamidronate hydrates” value ([1]; all storage conditions) of the same compound?
**A.** The value was “structurally the most stable”.

**Q.** And the “temperature from which water loss begins (TGA)” value ([3]; 10° C. per minute from room temperature to 500° C.)?
**A.** The value was 50 °C.

**Q.** And the “weight loss (TGA)” value ([3]; till 221.11° C., 14.26%+3.845%, error of measurement ±3%)?
**A.** Its value is 18.105%.

**Q.** And the “changes of properties, colors or shapes of soft capsules by visual observation” value [2]?
**A.** The value was “No changes are observed”.

**Q.** What does the source list for anhydrous disodium pamidronate?
**A.** behaviour of water contents on storage ([1]; 24° C. 50% RH): absorbed water; time after which converted to 3˜4 hydrates ([1]; 24° C. 50% RH): 4 weeks; behaviour of water contents on storage ([1]; 24° C., 0% RH): maintained stably; water contents ([1]; 24° C., 50% RH, 1 week): 1.45%; water contents ([1]; 24° C., 50% RH, 2 weeks): 8.42%; water contents ([1]; 24° C., 50% RH, 3 weeks): 13.34%; water contents ([1]; 24° C., 50% RH, 4 weeks): 17.19%; water contents ([1]; 24° C., 50% RH, 5 weeks): 17.84%; time after which converted to 3˜4 hydrates ([1]; 40° C. 75% RH): 3 weeks; water contents ([1]; 40° C., 0% RH, 1 week): 0.02%; water contents ([1]; 40° C., 0% RH, 2 weeks): 0.06%; water contents ([1]; 40° C., 0% RH, 3 weeks): 0.05%; water contents ([1]; 40° C., 0% RH, 4 weeks): 0.08%; water contents ([1]; 40° C., 0% RH, 5 weeks): 0.10%; Stability Evaluation (Stable hydrate) ([1]; 40° C., 0% RH): anhydrous form; water contents ([1]; 40° C., 75% RH, 1 week): 7.14%; water contents ([1]; 40° C., 75% RH, 2 weeks): 14.39%; water contents ([1]; 40° C., 75% RH, 3 weeks): 18.20%; water contents ([1]; 40° C., 75% RH, 4 weeks): 18.24%; water contents ([1]; 40° C., 75% RH, 5 weeks): 18.22%
